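Exposure lasted 48 hours, with cells grown in 96-well plates and compounds tested at five concentrations. GI50 marks 50% less growth. The concentration for full growth arrest is given as TGI.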
How the values were obtained:
Test in all cases: growth of human tumour cells (NCI), 48 h
HT29 colon = test system: HT29 colon
SK-MEL-5 melanoma = test system: SK-MEL-5 melanoma
MCF7 breast = test system: MCF7 breast
UACC-257 melanoma = test system: UACC-257 melanoma
RPMI-8226 leukemia = test system: RPMI-8226 leukemia
NCI-H460 lung = test system: NCI-H460 lung
T-47D breast = test system: T-47D breast
MOLT-4 leukemia = test system: MOLT-4 leukemia
RXF 393 renal = test system: RXF 393 renal
K-562 leukemia = test system: K-562 leukemia
SNB-75 CNS = test system: SNB-75 CNS
NCI/ADR-RES ovarian = test system: NCI/ADR-RES ovarian
OVCAR-4 ovarian = test system: OVCAR-4 ovarian
SK-OV-3 ovarian = test system: SK-OV-3 ovarian
KM12 colon = test system: KM12 colon
SF-295 CNS = test system: SF-295 CNS
OVCAR-3 ovarian = test system: OVCAR-3 ovarian
NCI-H23 lung = test system: NCI-H23 lung
EKVX NSCLC = test system: EKVX NSCLC
MALME-3M melanoma = test system: MALME-3M melanoma
HCT-15 colon = test system: HCT-15 colon
HCC-2998 colon = test system: HCC-2998 colon
A549 NSCLC = test system: A549 NSCLC
IGROV1 ovarian = test system: IGROV1 ovarian
M14 melanoma = test system: M14 melanoma
SF-539 CNS = test system: SF-539 CNS
HL-60(TB) leukemia = test system: HL-60(TB) leukemia
SN12C renal = test system: SN12C renal
LOX IMVI melanoma = test system: LOX IMVI melanoma

SMILES: CC(C)(C)c1n[nH]c(=S)n(/N=C/c2ccc(F)c(Oc3ccccc3)c2)c1=O
- TGI (HT29 colon): > 100 µM
- GI50 (SK-MEL-5 melanoma): 19.9 µM
- TGI (SK-MEL-5 melanoma): 42.4 µM
- GI50 (MCF7 breast): 40.5 µM
- TGI (MCF7 breast): > 100 µM
- GI50 (UACC-257 melanoma): 24.2 µM
- TGI (UACC-257 melanoma): 68.4 µM
- GI50 (RPMI-8226 leukemia): 32.5 µM
- TGI (RPMI-8226 leukemia): > 100 µM
- GI50 (NCI-H460 lung): 31 µM
- TGI (NCI-H460 lung): > 100 µM
- GI50 (T-47D breast): 55.7 µM
- TGI (T-47D breast): > 100 µM
- GI50 (MOLT-4 leukemia): 39.8 µM
- TGI (MOLT-4 leukemia): > 100 µM
- GI50 (RXF 393 renal): 38.2 µM
- TGI (RXF 393 renal): > 100 µM
- GI50 (K-562 leukemia): 42.1 µM
- TGI (K-562 leukemia): > 100 µM
- GI50 (SNB-75 CNS): 32.5 µM
- TGI (SNB-75 CNS): > 100 µM
- GI50 (NCI/ADR-RES ovarian): 35.1 µM
- TGI (NCI/ADR-RES ovarian): > 100 µM
- GI50 (OVCAR-4 ovarian): 23.8 µM
- TGI (OVCAR-4 ovarian): 96.9 µM
- GI50 (SK-OV-3 ovarian): 38.2 µM
- TGI (SK-OV-3 ovarian): > 100 µM
- GI50 (KM12 colon): 35.9 µM
- TGI (KM12 colon): > 100 µM
- GI50 (SF-295 CNS): 15.3 µM
- TGI (SF-295 CNS): > 100 µM
- GI50 (OVCAR-3 ovarian): 28.3 µM
- TGI (OVCAR-3 ovarian): 95.7 µM
- GI50 (NCI-H23 lung): 37.7 µM
- TGI (NCI-H23 lung): > 100 µM
- GI50 (EKVX NSCLC): 41.6 µM
- TGI (EKVX NSCLC): > 100 µM
- GI50 (MALME-3M melanoma): 28.5 µM
- TGI (MALME-3M melanoma): 91.5 µM
- GI50 (HCT-15 colon): 37.7 µM
- TGI (HCT-15 colon): > 100 µM
- GI50 (HCC-2998 colon): 33.2 µM
- TGI (HCC-2998 colon): > 100 µM
- GI50 (A549 NSCLC): 33.9 µM
- TGI (A549 NSCLC): > 100 µM
- GI50 (IGROV1 ovarian): 35.9 µM
- TGI (IGROV1 ovarian): > 100 µM
- GI50 (M14 melanoma): 42 µM
- TGI (M14 melanoma): > 100 µM
- GI50 (SF-539 CNS): 43.7 µM
- TGI (SF-539 CNS): > 100 µM
- GI50 (HL-60(TB) leukemia): 61.9 µM
- TGI (HL-60(TB) leukemia): > 100 µM
- GI50 (SN12C renal): 48.5 µM
- TGI (SN12C renal): > 100 µM
- GI50 (LOX IMVI melanoma): 28.7 µM
- TGI (LOX IMVI melanoma): 72.2 µM
